Where a name gives a salt, the structure may show the parent alone. Read-outs that look alike come from different tables or passages of the source.
Molecular target: Nrf2-Keap1 complex (Homo sapiens, UniProt Q14145)
Assay: cell-based
Assay type: cell-based
Conditions: for activation at 16 µM / activation at 32 µM: 3 h; for activation at 16 µM: read-out: Activation 100 nL; for activation at 32 µM: read-out: Activation 200 nL
[1] = Table 2, 100 nL compound, screen run at 16 and 32 μM, 3 hr
[2] = Table 2, 200 nL compound, screen run at 16 and 32 μM, 3 hr
[3] = Table 1A, 100 nL compound, screen run at 16 and 32 μM, 3 hr
[4] = Table 1A, 200 nL compound, screen run at 16 and 32 μM, 3 hr

Nrf2-Keap1 complex, sequence (Q14145 whole entry, one chain of several): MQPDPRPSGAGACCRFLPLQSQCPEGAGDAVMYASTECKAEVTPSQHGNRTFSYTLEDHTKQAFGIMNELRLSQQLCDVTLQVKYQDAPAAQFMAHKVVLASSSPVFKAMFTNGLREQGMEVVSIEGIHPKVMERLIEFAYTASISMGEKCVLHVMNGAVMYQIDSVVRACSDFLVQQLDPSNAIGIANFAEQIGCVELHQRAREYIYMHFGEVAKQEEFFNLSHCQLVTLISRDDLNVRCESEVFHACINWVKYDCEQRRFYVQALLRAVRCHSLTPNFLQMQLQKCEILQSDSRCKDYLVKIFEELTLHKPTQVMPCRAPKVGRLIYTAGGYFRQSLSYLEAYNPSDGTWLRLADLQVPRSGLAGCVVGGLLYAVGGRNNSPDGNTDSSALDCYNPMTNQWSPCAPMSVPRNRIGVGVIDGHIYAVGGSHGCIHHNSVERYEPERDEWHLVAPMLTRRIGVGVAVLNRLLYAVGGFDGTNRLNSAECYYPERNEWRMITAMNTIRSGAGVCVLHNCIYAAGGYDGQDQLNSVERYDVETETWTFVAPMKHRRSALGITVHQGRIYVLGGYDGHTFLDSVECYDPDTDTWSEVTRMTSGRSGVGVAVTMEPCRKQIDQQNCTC

| Structure (SMILES) | 100 nL (luminescence) [1] | 200 nL (luminescence) [2] | activation at 16 µM [%] | activation at 32 µM [%] | further results |
| --- | --- | --- | --- | --- | --- |
| C[C@]12CCC(=O)C=C1CCc1ccc(O)cc12 [12-HYDROXY-4,4-BISNOR-4,8,11,13-PODOCARPATETRAEN-3-ONE] | 592 | 768 |  |  | Activation 100 nL: 26%; Activation 200 nL: 18% |
| COc1ccc(/C=C/C(=O)c2ccc(O)cc2O)cc1 [2′,4′-DIHYDROXY-4-METHOXYCHALCONE] | 4576 | 2720 | 246 | 121 |  |
| COC(=O)Nc1nc2cc(C(=O)c3ccccc3)ccc2[nH]1 [MEBENDAZOLE, reference compound] |  |  | 74 | 216 | 100 nL (luminescence) [3]: 1872; 200 nL (luminescence) [4]: 3056 |
| CC(=O)O[C@@H]1C[C@H]2C(C)(C)C(=O)CC[C@]2(C)[C@H]2CC[C@@]3(C)[C@H](c4ccoc4)OC(=O)[C@H]4O[C@]43[C@@]21C [DIHYDROGEDUNIN] | 1866 | 3068 | 112 | 114 |  |
| O=C(/C=C/c1ccccc1)c1ccc(O)cc1O [2′,4′-DIHYDROXYCHALCONE] | 2352 | 1388 | 227 | 45 |  |
| CC(=O)O[C@@H]1CC2C(C)(C)C=CC(=O)[C@]2(C)C2CC[C@@]3(C)[C@H](c4ccoc4)OC(=O)C4OC43[C@@]21C (some centres unmarked) [ISOGEDUNIN] | 2724 | 3188 |  |  | Activation 100 nL: 155%; Activation 200 nL: 188% |
| COC(=O)C(N)CS (centres unmarked) [MECYSTEINEHYDROCHLORIDE, reference compound] |  |  | 82 | 216 | 100 nL (luminescence): 2028; 200 nL (luminescence): 3064 |
| CC1(C)C(C(Cl)Cl)C2(Cl)C(Cl)C(Cl)C1(Cl)C2(Cl)Cl (centres unmarked) [TOXAPHENE] | 5648 | 5632 | 395 | 226 |  |
| O=c1oc2cc(O)ccc2s1 [TIOXOLONE, reference compound] | 3542 | 768 | 156 | 31 |  |
| COc1cc2c(c(OC)c1OC)-c1ccc(OC)c(=O)cc1[C@@H](NC(C)=O)CC2 [COLCHICINE, reference compound] |  |  | 49 | 24 | 100 nL (luminescence): 944; 200 nL (luminescence): 840 |
| COc1ccc(-c2coc3cc(O)ccc3c2=O)c(O)c1O [KOPARIN] | 3768 | 492 | 223 | 11 | Neh2-luc reporter activation: > 200% |
| COc1ccc2ccc(=O)oc2c1CC=C(C)C [OSTHOL] | 1136 | 1634 |  |  | Activation 100 nL: 58%; Activation 200 nL: 52% |
| O=c1cc(-c2ccc(O)c(O)c2)oc2cc(O)cc(O)c12 [Luteolin, 5,7,3′,4′-tetrahydroxyflavone] |  |  |  |  | hit strength in the screen (words): much lesser active than fisetin and quercetin; hit strength in the screen (words) (listed as luteolin): very poor Nrf2 activator |
| C[C@]12C=CC(=O)C=C1CC[C@@H]1[C@@H]2CC[C@]2(C)C(=O)CC[C@@H]12 [ANDROSTA-1,4-DIEN-3,17-DIONE] | 1444 | 2048 | 81 | 70 |  |
| O=C1OC(=O)[C@H]2[C@@H]1[C@@H]1CC[C@H]2O1 [NORCANTHARIDIN] | 756 | 572 |  |  | Activation 100 nL: 45%; Activation 200 nL: 10% |
| O=c1cc(-c2cc(O)c(O)c(O)c2)oc2cc(O)cc(O)c12 [HIERACIN] | 2502 | 1832 |  |  | Activation 100 nL: 160%; Activation 200 nL: 60% |
| COc1cc(O)cc(OC)c1OC [ANTIAROL] | 1016 | 2248 | 74 | 81 |  |
| O=C1OCCN1/N=C/c1ccc([N+](=O)[O-])o1 [FURAZOLIDONE, reference compound] |  |  | 43 | 45 | 100 nL (luminescence): 876; 200 nL (luminescence): 1288 |
| CCCSc1ccc2nc(NC(=O)OC)[nH]c2c1 [ALBENDAZOLE, reference compound] |  |  | 191 | 272 | 100 nL (luminescence): 4200; 200 nL (luminescence): 5292 |
| C=C1CC[C@@H]2[C@](C)(CO)[C@H](O)CC[C@@]2(C)[C@@H]1C/C=C1/C(=O)OC[C@H]1O [ANDROGRAPHOLIDE] |  |  | 78 | 11 | 100 nL (luminescence): 1404; 200 nL (luminescence): 708 |
| COc1ccc2c(c1)OCc1c-2oc2cc(OC)ccc12 [DEHYDROVARIABILIN] | 1672 | 916 | 86 | 39 |  |
| CC(C)[C@@H](C)/C=C/[C@@H](C)[C@H]1CC[C@H]2C3=CC=C4C[C@@H](O)CC[C@]4(C)[C@H]3CC[C@]12C [ERGOSTEROL] | 1676 | 1640 | 86 | 86 |  |
| CCC(C)C(=O)OC1[C@@H]2CC3=C4CC(=O)O[C@@H](c5ccoc5)[C@]4(C)CCC3[C@@](C)(C2=O)[C@@H](CC(=O)OC)C1(C)C (some centres unmarked) [KHAYASIN] | 1736 | 1928 | 90 | 105 |  |
| COc1cc(O)c(C(=O)/C=C/c2ccccc2)c(OC)c1 [FLAVOKAWAINB] | 2564 | 8 | 144 | -21 |  |
| CC1(C)C(=O)C=C[C@]2(C)[C@H]3CC[C@@]4(C)[C@H](c5ccoc5)OC(=O)[C@H]5O[C@]54[C@]3(C)C(=O)C[C@@H]12 [DEACETOXY-7-OXOGEDUNIN] | 1048 | 448 |  |  | Activation 100 nL: 45%; Activation 200 nL: 8% |
| CC(=O)NCCc1c[nH]c2ccc(O)cc12 [ACETYLSEROTONIN] |  |  | 61 | 31 | 100 nL (luminescence) [3]: 900; 200 nL (luminescence) [4]: 1056 |
| CSc1nc(NC(C)C)nc(NC(C)C)n1 [PROMETRYN] | 1264 | 542 | 67 | 4 |  |
| CC(=O)O[C@@H]1CC2C(C)(C)[C@H](O)C=C[C@]2(C)C2CC[C@]3(C)C(=CC(=O)O[C@H]3c3ccoc3)[C@@]21C (stereo partly drawn) [3-alpha-HYDROXYDEOXYGEDININ] | 1196 | 1764 |  |  | Activation 100 nL: 55%; Activation 200 nL: 94% |
| CC(C)C1=CC2=CC[C@@H]3[C@](C)(CCC[C@@]3(C)C(=O)O)[C@H]2CC1 [ABIETICACID] |  |  | 67 | 57 | 100 nL (luminescence): 1256; 200 nL (luminescence): 1748 |
| COC(=O)CC[C@@H](C)[C@H]1CC[C@H]2[C@@H]3[C@H](O)C[C@@H]4C[C@H](O)CC[C@]4(C)[C@H]3C[C@H](O)[C@]12C [CHOLICACID, METHYLESTER] | 848 | 804 |  |  | Activation 100 nL: 36%; Activation 200 nL: 15% |

Reference: patent publication US9200046B2, “Reporter system for high throughput screening of compounds and uses thereof” (priority 2011, dated 2015)
